Test results reported in article PMC2532997, “Methoxylation enhances stilbene bioactivity in Caenorhabditis elegans” (BMC Pharmacology, 2008).

Tested on: gld-1(q485) germline tumors
Experiment: Germline tumor growth assay (DAPI-stained tumor area)
Assay type: in vivo, Caenorhabditis elegans
Settings: 100 μM dose, four days treatment
Procedure: To assess the effects of methoxylation on antitumor activity in vivo, tumor area was measured in gld-1(q485) adults treated for four days with either resveratrol trimethylether, desoxyrhapontigenin or pterostilbene, which are methoxylated and toxic to adults, or resveratrol, which is hydroxylated and nontoxic. As controls, germline tumor area was also measured in animals treated with carrier only (ethanol) or with 5-fluoro-2'-deoxyuradine (FUDR), a thymidylate synthetase inhibitor that blocks cell proliferation. […] After four days of treatment, animals were collected and germline tumors were visualized by DAPI staining to visualize germcell nuclei. Because the level of DAPI staining was not quantitative between animals, we DAPI signal intensity was not used as a measure of tumor size. Rather, tumor size was directly measured as the area of the DAPI-stained gonad.
Resveratrol and picetannol were obtained from commercial sources (Sigma-Aldrich, Inc. and Calbiochem-Novobiochem Corp., respectively). The methoxylated stilbenes pinostilbene, desoxyrhapontigenin, 3-hydroxy-5,4'-dimethoxystilbene and pterostilbene (Figure 1) were synthesized by partial methylation of trans-resveratrol as previously reported. The methoxylated stilbenes were purified by preparative layer chromatography (Merck Silica gel 60 F254; EMD Chemicals Inc., Gibbstown, NJ) using the developing solvent chloroform:methanol (96:4) with 1% formic acid. The Rf values for pterostilbene, 3-hydroxy-5,4'-dimethoxystilbene, pinostilbene and desoxyrhapontigenin are 0.61, 0.57, 0.28, and 0.20, respectively. These stilbenes were identified from their ^1H-NMR spectra (Bruker 400 MHz; Bruker, Billerica, MA). All stilbenes were dissolved in ethanol to 25 mg/mL before use. 5-Fluoro-deoxyuracil (Sigma Chemical Co.) was dissolved to 1 mg/mL in sterile water and stored frozen at -20°C until use. For treating C. elegans adults, each compound was added in a 200 μL volume to the top of a 1-day old bacterial lawn grown on NGM medium to final concentrations as indicated. Compounds were allowed 2 hours to diffuse through the agar medium before animals were added.
The gld-1(q485) mutation causes a defect in oocyte development that results in growth of germline tumors that fill the somatic gonad, eventually leading to the animal's death. To examine the effects of the stilbenes on gld-1(q485) germline tumors, day 0 adults were placed on stilbene-containing medium in the presence of OP50 bacteria as food source. After 4 days at 20°C, animals were fixed in methanol and germcell nuclei were visualized by staining with DAPI. Images were collected with the entire animal in view using the 4× objective on a Nikon E800 microscope equipped with a Hamamatsu Orca ER CCD camera using OpenLab imaging software. NIH Image J software was used to measure germline tumor growth in treated and untreated animals. Tumor area was measured by outlining the entire DAPI-stained tumor.

COc1ccc(/C=C/c2cc(OC)cc(OC)c2)cc1 [Resveratrol-trimethylether, resveratrol-trimethylether]
effect on tumor size (in words): consistent reductions in tumor size
